Measured values reported in US20240279184A1, “HETEROAROMATIC ANALOGUES OF 3-BENZYLMENADIONE DERIVATIVES AND PROCESSES FOR THEIR PREPARATION” (CENTRE NATIONAL DE LA RECHERCHE SCIENTIFIQUE, priority 2021, published 2024).

Assays:
[1] = test system: Plasmodium falciparum NF54 strain; test: primary screening of antimalarial activity, Plasmodium falciparum NF54 strain; assay type: cell-based; conditions: for antimalarial activity compared with the regioisomer (potency and specificity): NF54 strain versus rat L6 myoblasts, MR00418 vs MR00397, MR00419 vs MR00407; for IC50: Plasmodium falciparum NF54 strain, first primary screening
[2] = test system: rat L6 myoblast cell line; test: primary screening on the rat L6 myoblast cell line (specificity/cytotoxicity); assay type: cell-based; conditions: first primary screening

CC1=C(Cc2ccc(C(F)(F)F)nc2)C(=O)c2ccccc2C1=O [MRO0418, 2-methyl-3-((6-(trifluoromethyl)pyridin-3-yl)methyl) naphthalene-1,4-dione]
antimalarial activity compared with the regioisomer (potency and specificity) [1]: more potent and specific antimalarial activities than the regioisomers | IC50 [1]: 6 nM | IC50 [2]: 179 µM

CC1=C(Cc2cnc(C(F)(F)F)nc2)C(=O)c2ccccc2C1=O [MRO0419, 2-methyl-3-((2-(trifluoromethyl)pyrimidin-5-yl)methyl) naphthalene-1,4-dione]
antimalarial activity compared with the regioisomer (potency and specificity) [1]: more potent and specific antimalarial activities than the regioisomers | IC50 [1]: 65 nM | IC50 [2]: 48.3 µM
